Article PMC10669129 (2023)

What was measured:
[1] = test system: 5-HT-binding DNA aptamer (44-mer) (DNA, aptamer) CGACTGGTAGGCAGATAGGGGAAGCTGATTCGATGCGTGGGTCG; assay: square wave voltammetry; conditions: Mg2+ 2 mM, 1X PBS; apparent; 30 min exposure in 1X PBS; read in ferri/ferrocyanide 5 mM, pH 7.1; Hill fit
[2] = test system: 5-HT-binding DNA aptamer (44-mer) (DNA, aptamer) CGACTGGTAGGCAGATAGGGGAAGCTGATTCGATGCGTGGGTCG; assay: electrochemical impedance spectroscopy; conditions: Mg2+ 2 mM, 1X PBS; apparent; 30 min exposure in 1X PBS; read in ferri/ferrocyanide 5 mM, pH 7.1; Hill fit
[3] = test system: 5-HT-binding DNA aptamer (44-mer) (DNA, aptamer) CGACTGGTAGGCAGATAGGGGAAGCTGATTCGATGCGTGGGTCG; assay: EIS and SWV; single-frequency EIS; conditions: Mg2+ 2 mM, 1X PBS; selectivity test; highest concentration not given in text
[4] = test system: 5-HT-binding DNA aptamer (44-mer) (DNA, aptamer) CGACTGGTAGGCAGATAGGGGAAGCTGATTCGATGCGTGGGTCG; assay: single-frequency EIS; conditions: Mg2+ 2 mM, 1X PBS; some cross-reactivity; microfluidic flow; concentration not given

SMILES | binding [3] | binding [4] | further results
NCCc1c[nH]c2ccc(O)cc12 | – | – | kd,eff [1]: 306.76 ± 41.54 nM; kd,eff [2]: 343.54 ± 61.03 nM
NCCc1ccc(O)c(O)c1 | no | – | –
N[C@@H](Cc1c[nH]c2ccc(O)cc12)C(=O)O | – | weak | –
N[C@@H](Cc1c[nH]c2ccccc12)C(=O)O | – | weak | –

More lines, main results first:

binding [3] | binding [4] | SMILES | further results
no | – | NC[C@H](O)c1ccc(O)c(O)c1 | –
– | weak | O=C(O)Cc1c[nH]c2ccc(O)cc12 | –
